Measurements reported in patent US20210070748A1, “INHIBITORS OF BRUTONS TYROSINE KINASE” (Pharmacyclics LLC, priority 2015, published 2021).

Tests used:
Type in all cases: biochemical
TEC = biological target: T1, TEC (Homo sapiens, UniProt P42680); assay: Inhibition of a panel of kinases, in vitro HotSpot kinase assay: TEC; details: D-compounds panel data; 1 μM ATP
T1 sequence (P42680 1-631): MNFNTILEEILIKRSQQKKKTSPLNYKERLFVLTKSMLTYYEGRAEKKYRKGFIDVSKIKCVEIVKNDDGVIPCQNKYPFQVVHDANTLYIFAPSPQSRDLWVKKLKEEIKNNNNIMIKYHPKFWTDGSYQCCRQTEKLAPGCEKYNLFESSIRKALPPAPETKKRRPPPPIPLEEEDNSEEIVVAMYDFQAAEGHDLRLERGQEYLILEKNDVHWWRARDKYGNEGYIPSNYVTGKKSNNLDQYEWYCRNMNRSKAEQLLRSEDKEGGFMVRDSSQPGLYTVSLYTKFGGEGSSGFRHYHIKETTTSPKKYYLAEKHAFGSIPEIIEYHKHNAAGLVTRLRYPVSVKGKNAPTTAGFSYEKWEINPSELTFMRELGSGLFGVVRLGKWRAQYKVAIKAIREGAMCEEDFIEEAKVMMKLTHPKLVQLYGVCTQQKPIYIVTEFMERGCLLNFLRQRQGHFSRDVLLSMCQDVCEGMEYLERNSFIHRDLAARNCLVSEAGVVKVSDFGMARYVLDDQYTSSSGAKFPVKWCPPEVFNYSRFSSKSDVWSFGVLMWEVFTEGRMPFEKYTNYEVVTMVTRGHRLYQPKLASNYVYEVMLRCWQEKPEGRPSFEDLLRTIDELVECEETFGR
Protocol: (§1) The degree of inhibition of a panel of kinases is determined using the in vitro HotSpot kinase assay (purified enzymes, ^33P-ATP, an appropriate substrate and 1 μM ATP).

SRC = SRC (Homo sapiens, UniProt P12931); assay: Inhibition of a panel of kinases, in vitro HotSpot kinase assay: SRC; details: D-compounds panel data; 1 μM ATP
Protocol: as §1

ITK = biological target: T2, ITK (Homo sapiens, UniProt Q08881); assay: Inhibition of a panel of kinases, in vitro HotSpot kinase assay: ITK; details: D-compounds panel data; 1 μM ATP
T2 sequence (Q08881 1-620): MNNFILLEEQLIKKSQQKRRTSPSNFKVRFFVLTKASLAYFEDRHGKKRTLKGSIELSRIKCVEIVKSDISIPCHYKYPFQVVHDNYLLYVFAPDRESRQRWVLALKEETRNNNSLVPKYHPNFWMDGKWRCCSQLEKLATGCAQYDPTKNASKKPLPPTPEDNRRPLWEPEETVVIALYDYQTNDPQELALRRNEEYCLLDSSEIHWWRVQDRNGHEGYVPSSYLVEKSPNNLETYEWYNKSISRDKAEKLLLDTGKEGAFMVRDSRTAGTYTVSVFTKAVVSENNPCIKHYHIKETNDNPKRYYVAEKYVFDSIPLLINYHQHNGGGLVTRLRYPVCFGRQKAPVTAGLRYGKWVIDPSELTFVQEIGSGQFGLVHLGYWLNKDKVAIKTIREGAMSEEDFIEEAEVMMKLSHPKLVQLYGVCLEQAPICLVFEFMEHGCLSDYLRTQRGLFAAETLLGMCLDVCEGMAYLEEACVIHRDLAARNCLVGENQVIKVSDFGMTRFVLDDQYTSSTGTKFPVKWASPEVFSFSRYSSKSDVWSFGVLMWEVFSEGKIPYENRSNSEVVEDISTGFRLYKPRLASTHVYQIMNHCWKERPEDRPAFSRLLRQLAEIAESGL
Protocol: as §1

BTK-WT = biological target: T3, BTK-WT (Homo sapiens, UniProt Q06187); assay: Btk in vitro inhibitory activity (one of Method A TR-FRET, Method B electrophoretic mobility shift, Method C radiometric filter binding); details: D-compounds panel data; read-out: IC50 BTK-WT
T3 construct: purified from insect cells as a full-length construct containing an N-terminal 6X-His tag; His6 (N); made in house; host or cells: insect cells (baculovirus Sf21 in Method B)
T3 sequence (Q06187 whole entry): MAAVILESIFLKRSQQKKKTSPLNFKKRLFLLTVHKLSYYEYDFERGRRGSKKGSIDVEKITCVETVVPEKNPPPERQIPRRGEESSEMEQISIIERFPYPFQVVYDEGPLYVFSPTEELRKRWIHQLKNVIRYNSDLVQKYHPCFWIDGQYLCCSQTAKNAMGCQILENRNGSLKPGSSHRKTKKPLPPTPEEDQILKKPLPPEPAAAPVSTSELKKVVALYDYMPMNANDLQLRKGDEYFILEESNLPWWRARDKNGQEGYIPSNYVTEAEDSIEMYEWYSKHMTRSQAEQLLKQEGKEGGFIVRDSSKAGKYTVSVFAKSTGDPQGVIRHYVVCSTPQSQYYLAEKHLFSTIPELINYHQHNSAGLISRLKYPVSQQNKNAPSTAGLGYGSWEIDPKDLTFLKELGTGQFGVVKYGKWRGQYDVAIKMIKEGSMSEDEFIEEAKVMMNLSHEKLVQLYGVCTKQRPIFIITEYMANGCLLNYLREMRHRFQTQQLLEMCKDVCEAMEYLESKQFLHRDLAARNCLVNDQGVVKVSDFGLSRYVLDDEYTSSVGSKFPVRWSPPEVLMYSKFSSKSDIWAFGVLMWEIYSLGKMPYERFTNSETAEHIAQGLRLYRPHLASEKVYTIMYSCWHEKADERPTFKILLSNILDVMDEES

Sequence of SRC (P12931 whole entry): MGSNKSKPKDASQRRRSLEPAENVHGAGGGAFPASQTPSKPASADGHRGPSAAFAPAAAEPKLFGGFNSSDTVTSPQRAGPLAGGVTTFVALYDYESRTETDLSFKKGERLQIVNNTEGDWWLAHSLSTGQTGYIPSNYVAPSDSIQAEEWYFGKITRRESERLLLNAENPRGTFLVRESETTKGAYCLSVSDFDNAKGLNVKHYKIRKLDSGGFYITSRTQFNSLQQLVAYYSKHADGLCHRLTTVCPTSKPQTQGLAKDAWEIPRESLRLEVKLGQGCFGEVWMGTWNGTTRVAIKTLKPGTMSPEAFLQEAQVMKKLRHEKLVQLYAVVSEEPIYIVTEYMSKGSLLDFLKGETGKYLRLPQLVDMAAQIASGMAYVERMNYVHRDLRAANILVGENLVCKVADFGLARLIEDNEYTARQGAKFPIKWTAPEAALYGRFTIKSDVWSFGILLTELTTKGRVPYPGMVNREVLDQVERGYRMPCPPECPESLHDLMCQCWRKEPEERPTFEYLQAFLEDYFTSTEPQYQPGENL

Row | SMILES | IC50 (TEC) [nM] | IC50 (SRC) [nM] | IC50 (ITK) [nM] | IC50 (BTK-WT) [nM]
1 | Cc1cc(Nc2nc(N3C[C@@H](NC(=O)N(C)C)CC[C@@H]3C)cnc2C(N)=O)sn1 [Example D-76, 5-[(2S,5S)-5-[(dimethylcarbamoyl)amino]-2-methylpiperidin-1-yl]-3-[(3-methyl-1,2-thiazol-5-yl)amino]pyrazine-2-carboxamide] | 1000 to 10000 | 1000 to 10000 | > 10000 | 100 to 1000
2 | Cc1cc(Nc2nc(N3C[C@H](NC(=O)N(C)C)CC[C@H]3C)cnc2C(N)=O)sn1 [Example D-77, 5-[(2R,5R)-5-[(dimethylcarbamoyl)amino]-2-methylpiperidin-1-yl]-3-[(3-methyl-1,2-thiazol-5-yl)amino]pyrazine-2-carboxamide] | 1000 to 10000 | 1000 to 10000 | > 10000 | 100 to 1000
3 | Cc1cc(Nc2nc(N3C[C@@H](NC(=O)c4ccc(C5CC5)cc4F)CC[C@@H]3C)cnc2C(N)=O)sn1 [Example D-78, 5-[(2S,5S)-5-(4-cyclopropyl-2-fluorobenzamido)-2-methylpiperidin-1-yl]-3-[(3-methyl-1,2-thiazol-5-yl)amino]pyrazine-2-carboxamide] | 1000 to 10000 | 100 to 1000 | 1000 to 10000 | 100 to 1000
4 | Cc1cc(Nc2nc(N3C[C@H](NC(=O)c4ccc(C5CC5)cc4F)CC[C@H]3C)cnc2C(N)=O)sn1 [Example D-79, 5-[(2R,5R)-5-(4-cyclopropyl-2-fluorobenzamido)-2-methylpiperidin-1-yl]-3-[(3-methyl-1,2-thiazol-5-yl)amino]pyrazine-2-carboxamide] | > 10000 | 1000 to 10000 | > 10000 | 100 to 1000
5 | Cc1cc(Nc2nc(N3C[C@@H](NC(=O)c4ccc(C5CC5)cc4F)CC[C@H]3C)cnc2C(N)=O)sn1 [Example D-80, 5-[(2R,5S)-5-(4-cyclopropyl-2-fluorobenzamido)-2-methylpiperidin-1-yl]-3-[(3-methyl-1,2-thiazol-5-yl)amino]pyrazine-2-carboxamide] | 1000 to 10000 | 100 to 1000 | > 10000 | 10 to 100
6 | C[C@@H]1[C@H](NC(=O)c2ccc(C3CC3)cc2)CCCN1c1cnc(C(N)=O)c(Nc2ccc(N3CCN(C)CC3)cc2)n1 [Example D-81] | 10 to 100 | 10 to 100 | 100 to 1000 | ≤ 10

Second part, the compound after the results:

Row | IC50 (TEC) [nM] | IC50 (SRC) [nM] | IC50 (ITK) [nM] | IC50 (BTK-WT) [nM] | SMILES
7 | 10 to 100 | 10 to 100 | 100 to 1000 | ≤ 10 | C[C@@H]1[C@H](NC(=O)c2ccc(C3CC3)cc2F)CCCN1c1cnc(C(N)=O)c(Nc2ccc(N3CCN(C)CC3)c(F)c2)n1 [Example D-82, 5-[(2R,3R)-3-(4-cyclopropyl-2-fluorobenzamido)-2-methylpiperidin-1-yl]-3-{[3-fluoro-4-(4-methylpiperazin-1-yl)phenyl]amino}pyrazine-2-carboxamide]
8 | 10 to 100 | 100 to 1000 | 1000 to 10000 | 10 to 100 | C[C@@H]1[C@H](NC(=O)c2ccc(C3CC3)cc2)CCCN1c1cnc(C(N)=O)c(Nc2ccc3nccn3c2)n1 [Example D-83, 5-[(2R,3R)-3-(4-cyclopropylbenzamido)-2-methylpiperidin-1-yl]-3-({imidazo[1,2-a]pyridin-6-yl}amino)pyrazine-2-carboxamide]
9 | ≤ 10 | 10 to 100 | 100 to 1000 | ≤ 10 | C[C@@H]1[C@H](NC(=O)c2ccc(N(C)C)cn2)CCCN1c1cnc(C(N)=O)c(Nc2cnn(C)c2)n1 [Example D-84, 5-[(2R,3R)-3-[5-(dimethylamino)pyridine-2-amido]-2-methylpiperidin-1-yl]-3-[(1-methyl-1H-pyrazol-4-yl)amino]pyrazine-2-carboxamide]
10 | ≤ 10 | 100 to 1000 | 100 to 1000 | ≤ 10 | C[C@@H]1[C@H](NC(=O)c2ccc(-c3ncccn3)cc2)CCCN1c1cnc(C(N)=O)c(Nc2cnn(C)c2)n1 [Example D-85, 3-[(1-methyl-1H-pyrazol-4-yl)amino]-5-[(2R,3R)-2-methyl-3-[4-(pyrimidin-2-yl)benzamido]piperidin-1-yl]pyrazine-2-carboxamide]
